# Measurements published in patent USRE28700E, “Antibiotic X-5108 for stimulating growth” (Hoffmann-La Roche Inc., priority 1972, dated 1976).
# Like-named read-outs stand apart in the source and are kept apart here.
# What was measured:
# mice = assay: Acute toxicity in mice (LD50), oral and subcutaneous; assay type: in vivo
# Streptococcus pyogenes = assay: Activity against Streptococcus pyogenes infection (CD50); assay type: in vivo
# [1] = Growth stimulating effect and feed efficiency in broiler chicks (Table 12); assay type: in vivo, Cornish Cross Sexed Broiler Chicks
# Method: A basal ration was prepared containing the following named ingredients in the quantities hereinafter indicated: […]
# Antibiotic X-5108 was added to this ration in a ratio of 50 milligrams of antibiotic per kilogram of ration.
# (§1) The growth stimulating effects of antibiotic X-5108 were determined by allowing poultry to feed, ad libitum, on the antibiotic supplemented ration. In the test, one day old Cornish Cross Sexed Broiler Chicks were used. The test utilized 10 chicks per replicate (5 males and 5 females). The replicate groups were permitted access to the ration. A planned random distribution of the replicates was made to equalize factors of heating, light and position. The birds were observed over a two week period, with group weight being determined several times during the period and individual weights being determined at the end of 14 days. Feed consumption was also recorded and improvement in feed efficiency, as compared to the control, was calculated.
# (§2) The average gain for each test group is divided by the average gain of the negative control group and the quotient multiplied by 100 to yield the percent weight gain. Gain is the final body weight of the chick at the end of the 2 week test minus the beginning weight of 1 day of age. [formula]
# [2] = tested on: a variety of microorganisms including gram-positive and gram-negative bacteria; assay: Antimicrobial activity in general / biopotency; assay type: cell-based
# Method: (§3) The activity of antibiotic X-5108 can be measured in vitro by its zone of inhibition against the gram-positive bacterium Bacillus E in the usual cup-plate agar diffusion method. Alternately the gram-positive bacterium Bacillus simplex can be employed. Both bacteria give approximately 20 mm. inhibition zones with an arbitrarily defined 1 unit/ml. solution. In this assay method, a culture of the test microorganism is grown in nutrient broth, for example, Trypticase Soy Broth, for 24 to 42 hours at 28° C. in a rotary shaker (100 ml. medium per 500 ml. Erlenmeyer flask). An inoculum concentration of 0.25 to 0.5 percent is used to inoculate the 4 ml. seed layer which is poured over a prehardened 20 ml. of base nutrient agar layer in a 100 ml. glass or disposable plastic Petri dish. The plates are refrigerated for at least two hours before cupping and filling with test solution containing the antibiotic. The plates are then incubated at 35° C. for 18 hours and zone diameters are measured to the nearest 0.5 mm. Calculations of unit per ml. potencies are then made from standard curves.
# (§4) The antimicrobial spectrum was determined by employing agar diffusion cup-plate assays as described earlier.
# [3] = Growth stimulating effect and feed efficiency in chicks, repeated trials at varied levels (Table 13); assay type: in vivo, Cornish Cross Sexed Broiler Chicks; conditions: for Percent gain: control = 100
# Method: as §1, §2
# The experiment described in Example 5, including the control, was repeated several times using the same basal ration as in Example 5. In these trials the level of antibiotic X-5108 was varied. The trial chickens were fed on supplemented feed rations containing the active ingredient in a ratio of 5, 10, 25, 50 and 100 mg. per kg. of feed. These trials were repeated to confirm the results. In the control test four replicates of ten birds were allowed to feed on a basal ration devoid of the antibiotic supplement. […] Feed consumption was also recorded and improvements in feed efficiency in comparison to the control were calculated. Table 13 records the results of this series of experiments.
# Diplococcus pneumoniae = assay: Activity against Diplococcus pneumoniae (CD50); assay type: in vivo
# Proteus vulgaris = assay: Activity against gram-negative Proteus vulgaris infection; conditions: in vivo
# Bacillus simplex = assay: Agar diffusion cup-plate assay, Bacillus simplex; assay type: cell-based; conditions: arbitrarily defined 1 unit/ml. solution
# Method: as §3, §4
# caecal coccidiosis = assay: Activity in caecal coccidiosis; conditions: in vivo
# [4] = Growth promotion in poultry (general statement); assay type: in vivo
# Bacillus E = assay: Agar diffusion cup-plate assay, Bacillus E; assay type: cell-based
# Method: as §3, §4
structure (smiles),measurement,setting,value
C/C=C\C=C\[C@@H]1O[C@](O)([C@H](CC)C(=O)NC/C=C/C=C(\C)[C@@H](OC)[C@@H](C)[C@@H]2O[C@H](/C=C/C=C/C=C(\C)C(=O)c3c(O)ccn(C)c3=O)[C@H](O)[C@@H]2O)[C@H](O)[C@H](O)C1(C)C [Antibiotic X-5108],LD50,"mice; mice, oral","> 2,000 mg./kg."
same,toxicity in mice (in words),"mice; mice, orally and subcutaneously",relatively atoxic orally and subcutaneously
same,LD50,"mice; mice, subcutaneous","1,320 mg./kg."
same,oral and parenteral toxicity (in words),mice; oral and parenteral,low oral and parenteral toxicity
same,CD50,Streptococcus pyogenes; orally,52 mg/kg
same,CD50,Streptococcus pyogenes; subcutaneously,44 mg/kg
same,antistreptococcal activity (in words),Streptococcus pyogenes; systemically (oral route) and local (subcutaneous route),marked antistreptococcal activity
same,growth rate compared to control (in words),[1]; 50 mg. per kilogram of feed,increased growth rate
same,improvement in feed efficiency,"[1]; 50 mg. per kilogram of feed, vs control",10%
same,"Two-week gain, g. ±2SE","[1]; 50 mg./kg. feed, average for 40 chicks, basal control 154±8",185 ± 12 g
same,Feed efficiency,"[1]; 50 mg./kg. feed, two weeks, control 1.55",1.39
same,Percent gain,"[1]; 50 mg./kg. feed, two weeks, control = 100",120%
same,Percent improved feed efficiency,"[1]; 50 mg./kg. feed, vs control",+12%
same,bipotency relative to starting material,"[2]; after countercurrent distribution, Example 3",approximately twice that of the starting material
same,antimicrobial spectrum (in words),[2]; agar diffusion cup-plate,broad antimicrobial spectrum
same,activity against a variety of microorganisms (in words),[2]; crude or more purified form,active against a variety of microorganisms including gram-positive and gram-negative bacteria
same,Percent improved feed eff.,"[3]; 10 mg./kg., 18 birds",+13%
same,Feed eff.,"[3]; 10 mg./kg., 18 birds, control 1.54",1.41
same,Two-week gain,"[3]; 10 mg./kg., 18 birds, control 149",185 g
same,Percent gain,"[3]; 10 mg./kg., 18 birds",124%
same,Percent improved feed eff.,"[3]; 25 mg./kg., 18 birds",+16%
same,Feed eff.,"[3]; 25 mg./kg., 18 birds, control 1.59",1.37
same,Two-week gain,"[3]; 25 mg./kg., 18 birds, control 146",180 g
same,Percent gain,"[3]; 25 mg./kg., 18 birds",123%
same,Percent improved feed eff.,"[3]; 50 mg./kg., 18 birds",+7%
same,Feed eff.,"[3]; 50 mg./kg., 18 birds, control 1.47",1.38
same,Two-week gain,"[3]; 50 mg./kg., 18 birds, control 152",173 g
same,Percent gain,"[3]; 50 mg./kg., 18 birds",114%
same,Percent improved feed eff.,"[3]; 50 mg./kg., 24 birds",+12%
same,Feed eff.,"[3]; 50 mg./kg., 24 birds, control 1.54",1.37
same,Two-week gain,"[3]; 50 mg./kg., 24 birds, control 149",175 g
same,Percent gain,"[3]; 50 mg./kg., 24 birds",117%
same,Percent improved feed eff.,"[3]; 100 mg./kg., 18 birds",+14%
same,Feed eff.,"[3]; 100 mg./kg., 18 birds, control 1.54",1.33
same,Two-week gain,"[3]; 100 mg./kg., 18 birds, control 149",182 g
same,Percent gain,"[3]; 100 mg./kg., 18 birds",122%
same,Percent improved feed eff.,"[3]; level not given, 18 birds",+9%
same,Feed eff.,"[3]; level not given, 18 birds, control 1.51",1.39
same,Two-week gain,"[3]; level not given, 18 birds, control 149",183 g
same,Percent gain,"[3]; level not given, 18 birds",123%
same,activity against pneumococcus (in words),Diplococcus pneumoniae; in vivo,activity against pneumococcus
same,CD50,Diplococcus pneumoniae; p.o.,807 mg/kg
same,CD50,Diplococcus pneumoniae; sbc (subcutaneous),283 mg/kg
same,activity against Proteus vulgaris infection (in words),Proteus vulgaris,active
same,inhibition zone,Bacillus simplex,approximately 20 mm.
same,activity in caecal coccidiosis (in words),caecal coccidiosis,activity
same,feed efficiency in poultry (in words),[4],enhanced feed efficiency
same,growth promotion in poultry (in words),[4],exhibits activity as a poultry growth promotant
same,growth promotion in poultry (in words),[4]; listed as antibiotic X-5108,marked growth promotion in poultry
same,inhibition zone,Bacillus E; arbitrarily defined 1 unit/ml. solution,approximately 20 mm.
same,potency against Bacillus E,"Bacillus E; solid powder after butyl acetate extraction, Example 1",120 units Bacillus E per mg.
